The text below walks through data of article PMC5036617 (Toxicological Sciences, 2016).

For orientation: half-life means the time in which the quantity being followed falls by half.

Data set [1] has as its system HepG2 cells. Description: Cellular ATP content of HepG2 cells in glucose or galactose medium (ATP bioluminescent assay). The format is cell-based. The following applies: 2 h; for EC50ATPglu/EC50ATPgal: ratio ≥ 2 identifies a mitochondrial liability; for EC50: Homo sapiens, concentration reducing cellular ATP content by 50%. On the procedure:
Metabolic switching of cells was performed based on work previously described by ([[…] et al., 2015]). Briefly, 24 h prior to metabolic switch, HepG2 cells were collected by trypsinization and seeded on a collagen-coated flat-bottomed 96-well plate (20 000 cells/50 μl/well) and incubated (37°C, 5% CO2) overnight. […] Flutamide, 2-hydroxyflutamide and bicalutamide stock solutions were prepared in DMSO and diluted further in the appropriate medium. Compounds (50 μl) were then added to each well and cells were incubated for 2 h (37 °C, 5% CO2). All assays used ≤ 0.5% DMSO as a vehicle control. […] LDH content of the cells and supernatant was assessed using a cytotoxicity detection kit according to the manufacturer's instructions. ATP content was assessed using an ATP bioluminescent assay according to the manufacturer's instructions. Briefly, 10 μl of cell lysate or ATP standard curve solutions were added to a white-walled 96-well plate before addition of 40 μl ATP assay mix. Protein content of all wells was then assessed using a BCA assay applied to 10 μl of cell lysate and standards. LDH (490 nm), BCA (570 nm), and ATP assay luminescence were then measured using a plate reader (Varioskan, Thermo Scientific). ATP content readings were normalized to protein content. Experiments were conducted in a minimum of triplicate to ensure the reliability of single values. EC50 data were determined by nonlinear regression analysis using GraphPad Prism 5.0. Normality was assessed using a Shapiro-Wilk statistical test. Statistical significance was determined by an unpaired t-test for parametric data and a Mann-Whitney U test for non-parametric data using StatsDirect 2.7.9. P < .05 was taken as showing a significant difference.

Data set [2] has as its system HepG2 cells. Description: Mitochondrial stress test, OCR analysis (Seahorse XFe96). It is filed as cell-based. As to conditions: vs vehicle control. On the procedure:
HepG2 cells were collected by trypsinization and seeded on a collagen-coated XF 96-well cell culture microplate (25 000 cells/100 µl medium/well) and incubated overnight in glucose medium (37 °C, 5% CO2). All assays used ≤ 0.5% DMSO as a vehicle control. Cells were incubated for 1 h (37°C, 0% CO2) before culture medium was replaced by 175 µl of unbuffered Seahorse XF Base medium supplemented with glucose (25 mM), L-glutamine (2 mM), sodium pyruvate (1 mM), pre-warmed to 37 °C (pH 7.4). Prior to measurement of OCR, the Seahorse XFe96 instrument gently mixed the assay medium in each well for 10 min to enable the oxygen partial pressure to reach equilibrium. […] There were 9 OCR measurement cycles following compound injection and each measurement cycle consisted of a 3 min mix and 3 min measure. […] After stress test compound injections there were 3 measurement cycles before the injection of the next stress test compound. This enabled the calculation of basal respiration (OCR prior to oligomycin injection—non-mitochondrial OCR), proton leak (OCR after oligomycin injection—non-mitochondrial OCR), ATP-linked OCR (basal respiration—proton leak—non-mitochondrial OCR), maximal respiration (first injection after FCCP injection—non-mitochondrial OCR) and spare respiratory capacity (maximal respiration—basal respiration) (Figure 2).  FIG. 2 Representative control mitochondrial stress test trace. Mitochondrial stress test assays consisted of a series of compound injections into the cell culture microplate. […] Remaining injections consisted of oligomycin (ATP synthase inhibitor), FCCP (OXPHOS uncoupler), and rotenone/antimycin A (complex I and III inhibitors, respectively) with each followed by 3 measurement cycles. This series of manipulations enabled the calculation of parameters: basal, ATP-linked, maximum, and non-mitochondrial OCR, as well as proton leak. Each measurement cycle was a total of 6 min. Following completion of OCR assays, medium was removed from all wells and 20 µl of somatic cell ATP releasing agent was added to each well before shaking for 1 min and transfer of 10 µl of lysate to a 96-well plate and performance of a BCA assay according to the manufacturer’s instructions. Protein content per well was used to normalize OCR.

The conditions of data set [3]: cited from earlier work.

Like-named read-outs stand apart in the source and are kept apart here. Some results are limits rather than exact numbers.

For the compound `CC(O)(CS(=O)(=O)c1ccc(F)cc1)C(=O)Nc1ccc(C#N)c(C(F)(F)F)c1` (stereo not shown) [Bicalutamide], the EC50ATPglu/EC50ATPgal in data set [1] is 1.44 (0.22). For the same compound, the EC50ATPglu/EC50ATPgal in data set [1] (listed as bicalutamide) is not above 2. In addition, the “decrease in ATP content in galactose medium compared with glucose medium” value in data set [1] (up to 300 µM) was “this was not the case for bicalutamide”. Further, the EC50 in data set [1] (galactose medium, read-out: EC50ATP (μM) Galactose) was 103 µM. Moreover, the EC50 in data set [1] (glucose medium, read-out: EC50ATP (μM) Glucose) came out at 148 µM. In data set [2] (glucose medium, 7.8–500 µM), the basal respiration entry is on record as “only caused a significant decrease in maximal respiration” and the maximal respiration entry is “significant decrease”. Also, in data set [2] (up to 500 µM), the “ATP-linked OCR as a percentage of maximal respiration” value is listed as “not observed”, the “proton leak as a percentage of maximal respiration” value is reported as “not observed” and the “spare respiratory capacity as a percentage of maximal respiration” value was “not observed”.

As to `Nc1ccc([N+](=O)[O-])c(C(F)(F)F)c1` [3-trifluoromethyl-4-nitroaniline], the Cmax in data set [3] (plasma, metabolite after single 250 mg dose of flutamide, ref Schulz et al., 1988, read-out: maximum plasma concentration (Cmax)) was 1310 nM.

Turning to `C[C@](O)(CS(=O)(=O)c1ccc(F)cc1)C(=O)Nc1ccc(C#N)c(C(F)(F)F)c1` [(R)-bicalutamide], the half-life in data set [3] (single 50 mg dose, ref Cockshott, 2004) was 140 h. For the same compound, the Cmax in data set [3] (single 50 mg dose, ref Cockshott, 2004, read-out: Cmax) is 1700 nM.
